According to patent US12070505B2, “Targeted peptide-drug conjugates” (priority 2021, dated 2024):
Where two headings read alike, the source gives them in different places. Residues, ends and D or L forms follow the SMILES beside them. Groups on a side chain read outwards from the residue. *: point of attachment. Glutaryl(5-(14-O-Dox)) = COc1cccc2c1C(=O)c1c(O)c3c(c(O)c1C2=O)C[C@@](O)(C(=O)COC(=O)CCCC(=O)*)C[C@@H]3O[C@H]1C[C@H](N)[C@H](O)[C@H](C)O1; βAla = NCCC(=O)O

Legend:
[1] = test system: MDA-MB-231 cells; test: Differential extraction of Dox in nuclear and cytoplasmic compartments (HPLC); assay type: cell-based; details: 50 μM; 4 h exposure
Procedure: Differential Extraction of Dox in Nuclear and Cytoplasmic Compartments. In order to confirm nuclear delivery of peptide-conjugated Dox, in addition to confocal microscopy, a differential nuclear and cytoplasmic extraction was performed. […] The cells were then pelleted at 2000 rpm for 5 min. After removing the supernatant, the cells were resuspended in Dounce buffer containing protease inhibitors. The cell suspension to be used was incubated on ice for 15 min before being spiked with cold 10% NP-40 and vortexed for 10 s. The suspension was centrifuged at 10,000 rpm for 10 min at 4° C. to pellet the nuclei. The supernatant was isolated for cytoplasmic extraction. The nuclear pellet was washed in cold PBS twice and centrifuged to remove the supernatant. The isolated nuclei were then lysed using RIPA buffer containing protease inhibitors. The nuclear and cytoplasmic extractions were analyzed by analytical HPLC to differentially quantify free Dox (or Dox released from the conjugates) and peptide-conjugate Dox using an Agilent Zorbax SB-C18 (4.6×150 mm) column. The column was equilibrated with 0.1% TFA-water (solvent A). The elution was performed at a flow rate of 1 mL/min using a gradient of acetonitrile from 0 to 35% in 50 min, with the absorbance measured at 490 nm.

[2] = test system: H9C2 cells; test: Confocal microscopy uptake in H9C2 (Example 2); assay type: cell-based, rat; details: 5 μM, 24 h
Procedure: Confocal Microscopy. MDA-MB-231, SK-OV-3, MES-SA/MX2, and H9C2 cells (7×10^4 cells/well) were seeded with a medium on a coverslip 24 h prior to the experiment in six well plates. After 24 h, the medium was changed with opti-MEM. The cells were treated with Dox and peptide-Dox conjugate (5 μM) in opti-MEM for 24 h. After 24 h incubation, the media were removed, and cells were washed three times with PBS in each well. Then, the cells were fixed with 3.7% formaldehyde for 10 min, followed by washing three times with PBS (pH 7.6) for 5 min. DAPI (40 μL) for staining the nuclei was placed on a microscope slide, and it was covered with the coverslip with the cell-attached side facing down. The slides were left standing horizontally in a dark place with airflow to allow faster drying. The cells were photographed using Nikon Instruments A1 Confocal Laser Microscope Series and NIS-Elements software (AR 4.30.02, 64 bit). The scan mode was selected as Galvano. The magnification and resolution were set at 40× and 1024, respectively.

[3] = test system: MDA-MB-231 cells; test: FACS cellular uptake with endocytosis inhibitors, MDA-MB-231; assay type: cell-based; details: 5 μM, 3 h
Procedure: Fluorescence-Activated Cell Sorter (FACS) Analysis of Cellular Uptake in the Presence of Endocytosis Inhibitors. A flow cytometry study was conducted in the presence of endocytosis inhibitors such as nystatin, chlorpromazine, chloroquine, and methyl β-cyclodextrin to determine whether the cellular uptake for the peptide-Dox was endocytosis-dependent. MDA-MB-231 (5×10^5 cells/well) were seeded in the medium 24 h prior to the experiment in six well plates, and after 24 h the medium was changed with Opti-MEM. […] After 3 h incubation, the media containing the compounds were removed. Next, the cells were digested with 0.05% trypsin/EDTA (0.53 mM) for 5 min to remove any artificial surface binding, centrifuged at 2500 RPM for 5 min, and then collected as the precipitant. Then the cells were washed two times with PBS, resuspended in flow cytometry buffer, and transferred to the flow cytometry tubes through the 35 μm Strainer Mesh cap. Finally, the cells were analyzed by flow cytometry (FACSCalibur Becton Dickinson) using the propidium iodide channel and CellQuest software. The data presented were based on the mean fluorescence intensity for 10,000 cells collected. All assays were performed in triplicate.

[4] = test system: CCRF-CEM cells; details: 5 μM
Procedure: Intracellular Hydrolysis. […] Cells were grown with serum-free RPMI medium in 75 cm^2 culture flasks to approximately 70-80% confluence (1.37×10^7 cells/mL). […] Then the cells were incubated at 37° C. After 4 h, the medium containing the conjugate was aspirated, and cells were washed three times with PBS before adding a fresh serum-free medium. The cells were first partitioned/transferred to culture plates (six wells) contained 1.37×10^7 cells per well in 5 mL of medium, then incubated for the indicated time. After incubation, the cells were collected using centrifugation. After centrifugation, the medium was removed by decantation. The cell pellets were washed with ice-cold PBS to remove any remaining medium. The cell pellets were then completely extracted with an equal volume of methanol, chloroform, and isopropanol mixture (4:3:1 v/v/v) and finally filtered through 0.2 μm filters.

[5] = test system: MCF-7 cells; test: MTS cytotoxicity assay of [(WR)8WKβA]-Dox, MCF-7; assay type: cell-based
Procedure: (§1) Cytotoxic activity of the synthesized conjugate and noncovalent mixtures of cyclic [WR]9+Dox was determined in SK-OV-3, MDA-MB-231, MCF-7, MES-SA/MX2, and H9C2 cells. […] An appropriate growth medium was used for each cell line (for SK-OV-3: McCoy's […] with L-glutamine containing fetal bovine serum (FBS) (10%) and penicillin or streptomycin (1%); for MDA-MB-231 and MCF-7 cells: DMEM/F12 (1:1) (1×) with L-Glutamine and 15 mM HEPES containing FBS (10%) and penicillin or streptomycin (1%), and for MES-SA/MX2 and H9C2 cells: Minimum Essential Medium Eagle with Earle's salts and sodium bicarbonate, without L-glutamine containing FBS (10%), and penicillin or streptomycin (1%)). The cells were seeded in a complete growth medium 24 h prior to the experiment. […] The incubation was continued for 3 h.

[6] = test system: MES-SA/MX2 cells; test: MTS cytotoxicity assay of [(WR)8WKβA]-Dox, MES-SA/MX2; details: MES-SA/MX2; for reduction in cell viability: 24 h
Procedure: as §1

[7] = in vitro; details: human, 25% human serum
Procedure: Human serum (250 μL) was diluted by adding sterile water (650 μL) and conjugate stock solution (100 μL) to give a sample with 25% human serum and 5 μM conjugate. The sample was kept at 37° C. in an incubator to mimic human body temperature. At regular time intervals, aliquots (100 μL) were taken and diluted with methanol (200 μL). After centrifugation (7000 RPM) of the mixture for 10 min, the supernatant was analyzed by analytical HPLC at 495 nm, and the major HPLC peaks were analyzed by mass spectrometry. The mobile phase used was acetonitrile/water with 0.1% TFA, with a gradient of 20-45% and a flow rate of 1 mL/min in 50 min. The percentage of intact conjugate and the release of the free drug were plotted against incubation time. The AUC obtained after each run was used to confirm the conjugate's degradation, and t1/2 (the time needed to hydrolyze half of the initial conjugate in human serum) was calculated from the graph plotted as AUC versus incubation time.

[8] = test system: H9C2 myocardium cells; details: 24 h
Procedure: as §1

[9] = test system: MES-SA/MX2 cells; test: FACS cellular uptake with endocytosis inhibitors, MES-SA/MX2; assay type: cell-based; details: 5 μM, 3 h

COc1cccc2c1C(=O)c1c(O)c3c(c(O)c1C2=O)C[C@@](O)(C(=O)COC(=O)CCCC(=O)NCCC(=O)NCCCC[C@@H]1NC(=O)[C@H](Cc2c[nH]c4ccccc24)NC(=O)[C@H](CCCNC(=N)N)NC(=O)[C@H](Cc2c[nH]c4ccccc24)NC(=O)[C@H](CCCNC(=N)N)NC(=O)[C@H](Cc2c[nH]c4ccccc24)NC(=O)[C@H](CCCNC(=N)N)NC(=O)[C@H](Cc2c[nH]c4ccccc24)NC(=O)[C@H](CCCNC(=N)N)NC(=O)[C@H](Cc2c[nH]c4ccccc24)NC(=O)[C@H](CCCNC(=N)N)NC(=O)[C@H](Cc2c[nH]c4ccccc24)NC(=O)[C@H](CCCNC(=N)N)NC(=O)[C@H](Cc2c[nH]c4ccccc24)NC(=O)[C@H](CCCNC(=N)N)NC(=O)[C@H](Cc2c[nH]c4ccccc24)NC(=O)[C@H](CCCNC(=N)N)NC(=O)[C@H](Cc2c[nH]c4ccccc24)NC1=O)C[C@@H]3O[C@H]1C[C@H](N)[C@H](O)[C@H](C)O1 [[(WR)8WKβA]-Dox] (cyclo(K([βAla-Glutaryl(5-(14-O-Dox))])WRWRWRWRWRWRWRWRW))
total concentration of Dox (conjugated and released) in the nucleus [1]: higher than free Dox | uptake in heart cells (confocal microscopy, words) [2]: did not show any significant uptake | cellular uptake in presence of nystatin and chloroquine [3]: not reduced significantly | free Dox released intracellularly ([4]; within 12 h): More than 36% | free Dox released intracellularly ([4]; within 72 h): Approximately 100% | reduction of cell proliferation ([5]; 1 μM, 24 h): 28% | reduction of cell proliferation ([5]; 1 μM, 72 h): 70% | reduction of cell proliferation ([5]; 5 μM, 24 h): 55% | reduction of cell proliferation ([5]; 5 μM, 72 h): 77% | reduction of cell proliferation ([5]; 10 μM, 24 h): 56% | reduction of cell proliferation ([5]; 10 μM, 72 h): 77% | reduction in cell viability ([6]; 1 μM): 64% | reduction in cell viability ([6]; 5 μM): 50% | Dox-resistant cell survival / viability ([6]; 5 μM, 72 h): 8% | reduction in cell viability ([6]; 10 μM): 39% | half-life at 5 μM [7]: ~6 h | remaining at 3 h, 5 μM [7]: 80% | cytotoxicity ([8]; 1 μM and 5 μM): no significant cytotoxicity | cytotoxicity ([8]; 10 μM): comparable to Dox | cellular uptake in presence of nystatin and chloroquine [9]: not reduced significantly
